Data reported in ChEMBL document CHEMBL2380193, “New trifluoromethyl quinolone derivatives: synthesis and investigation of antimicrobial properties” (2013).
Values after ≈ are worked out from the molar mass of the structure shown.

Legend:
Candida albicans [1] = assay: Antifungal activity against Candida albicans MTCC 227 assessed as zone of inhibition at 100 ug/ml after 30 hrs by cup plate method; type: functional; conditions: MTCC 227, 30 h, read-out: IZ
Candida albicans [2] = assay: Antifungal activity against Candida albicans MTCC 227 after 30 hrs by serial dilution method; type: functional; conditions: MTCC 227, 30 h
Aspergillus flavus [3] = assay: Antifungal activity against Aspergillus flavus MTCC 277 assessed as zone of inhibition at 100 ug/ml after 30 hrs by cup plate method; type: functional; conditions: MTCC 277, 30 h, read-out: IZ
Aspergillus flavus [4] = assay: Antifungal activity against Aspergillus flavus MTCC 277 after 30 hrs by serial dilution method; type: functional; conditions: MTCC 277, 30 h
Aspergillus fumigatus [5] = assay: Antifungal activity against Aspergillus fumigatus MTCC 343 assessed as zone of inhibition at 100 ug/ml after 30 hrs by cup plate method; type: functional; conditions: MTCC 343, 30 h, read-out: IZ
Aspergillus fumigatus [6] = assay: Antifungal activity against Aspergillus fumigatus MTCC 343 after 30 hrs by serial dilution method; type: functional; conditions: MTCC 343, 30 h
Aspergillus niger [7] = assay: Antifungal activity against Aspergillus niger MTCC 282 assessed as zone of inhibition at 100 ug/ml after 30 hrs by cup plate method; type: functional; conditions: MTCC 282, 30 h, read-out: IZ
Aspergillus niger [8] = assay: Antifungal activity against Aspergillus niger MTCC 282 after 30 hrs by serial dilution method; type: functional; conditions: MTCC 282, 30 h
Klebsiella pneumoniae [9] = assay: Antibacterial activity against Klebsiella pneumoniae MTCC 432 assessed as zone of inhibition at 100 ug/ml after 14 hrs by cup plate method; type: functional; conditions: MTCC 432, 14 h, read-out: IZ
Klebsiella pneumoniae [10] = assay: Antibacterial activity against Klebsiella pneumoniae MTCC 432 after 14 hrs by serial dilution method; type: functional; conditions: MTCC 432, 14 h
Salmonella typhi [11] = assay: Antibacterial activity against Salmonella typhi MTCC 733 assessed as zone of inhibition at 100 ug/ml after 14 hrs by cup plate method; type: functional, Salmonella enterica subsp. enterica serovar Typhi; conditions: Salmonella enterica, MTCC 733, 14 h; read-out: IZ
Salmonella typhi [12] = assay: Antibacterial activity against Salmonella typhi MTCC 733 after 14 hrs by serial dilution method; type: functional, Salmonella enterica subsp. enterica serovar Typhi; conditions: Salmonella enterica, MTCC 733, 14 h
Escherichia coli [13] = assay: Antibacterial activity against Escherichia coli MTCC 443 assessed as zone of inhibition at 100 ug/ml after 14 hrs by cup plate method; type: functional; conditions: MTCC 443, 14 h, read-out: IZ
Bacillus subtilis [14] = assay: Antibacterial activity against Bacillus subtilis MTCC 441 after 14 hrs by serial dilution method; type: functional; conditions: MTCC 441, 14 h
Staphylococcus aureus [15] = assay: Antibacterial activity against Staphylococcus aureus MTCC 096 assessed as zone of inhibition at 100 ug/ml after 14 hrs by cup plate method; type: functional; conditions: MTCC 096, 14 h, read-out: IZ
Staphylococcus aureus [16] = assay: Antibacterial activity against Staphylococcus aureus MTCC 096 after 14 hrs by serial dilution method; type: functional; conditions: MTCC 096, 14 h
Escherichia coli [17] = assay: Antibacterial activity against Escherichia coli MTCC 443 after 14 hrs by serial dilution method; type: functional; conditions: MTCC 443, 14 h
Bacillus subtilis [18] = assay: Antibacterial activity against Bacillus subtilis MTCC 441 assessed as zone of inhibition at 100 ug/ml after 14 hrs by cup plate method; type: functional; conditions: MTCC 441, 14 h, read-out: IZ

Compound | zone of inhibition at 100 µg/mL (Candida albicans [1]) [mm] | MIC (Candida albicans [2]) [µg/mL] | zone of inhibition at 100 µg/mL (Aspergillus flavus [3]) [mm] | MIC (Aspergillus flavus [4]) [µg/mL] | zone of inhibition at 100 µg/mL (Aspergillus fumigatus [5]) [mm] | MIC (Aspergillus fumigatus [6]) [µg/mL] | zone of inhibition at 100 µg/mL (Aspergillus niger [7]) [mm] | MIC (Aspergillus niger [8]) [µg/mL] | zone of inhibition at 100 µg/mL (Klebsiella pneumoniae [9]) [mm] | MIC (Klebsiella pneumoniae [10]) [µg/mL] | zone of inhibition at 100 µg/mL (Salmonella typhi [11]) [mm] | MIC (Salmonella typhi [12]) [µg/mL] | zone of inhibition at 100 µg/mL (Escherichia coli [13]) [mm] | MIC (Bacillus subtilis [14]) [µg/mL] | zone of inhibition at 100 µg/mL (Staphylococcus aureus [15]) [mm] | MIC (Staphylococcus aureus [16]) [µg/mL] | MIC (Escherichia coli [17]) [µg/mL] | zone of inhibition at 100 µg/mL (Bacillus subtilis [18]) [mm]
CN1CCN(C/C=C/Cn2c(C(F)(F)F)cc(=O)c3cc(F)ccc32)CC1 | 15 | 6.25 (≈ 16.3 µM) | 12 | 12.5 (≈ 32.6 µM) | 12 | 12.5 (≈ 32.6 µM) | 12 | 12.5 (≈ 32.6 µM) | 12 | 12.5 (≈ 32.6 µM) | 12 | 12.5 (≈ 32.6 µM) | < 10 | 6.25 (≈ 16.3 µM) | 15 | 6.25 (≈ 16.3 µM) | 50 (≈ 130 µM) | 14
O=C1c2ccccc2C(=O)N1CCCCOc1cc(C(F)(F)F)nc2ccccc12 | 17 | 6.25 (≈ 15.1 µM) | < 10 | 25 (≈ 60.3 µM) | 12 | 12.5 (≈ 30.2 µM) | 17 | 6.25 (≈ 15.1 µM) | 12 | 12.5 (≈ 30.2 µM) | < 10 | 25 (≈ 60.3 µM) | < 10 | 6.25 (≈ 15.1 µM) | 16 | 6.25 (≈ 15.1 µM) | 50 (≈ 121 µM) | 16
Cc1ccc2c(c1)c(=O)cc(C(F)(F)F)n2CCCCN1C(=O)c2ccccc2C1=O | 15 | 6.25 (≈ 14.6 µM) | 12 | 12.5 (≈ 29.2 µM) | < 10 | 25 (≈ 58.4 µM) | 12 | 12.5 (≈ 29.2 µM) | 13 | 12.5 (≈ 29.2 µM) | 13 | 12.5 (≈ 29.2 µM) | < 10 | 6.25 (≈ 14.6 µM) | 15 | 6.25 (≈ 14.6 µM) | 25 (≈ 58.4 µM) | 15
